From BindingDB's records for doi:10.1111/j.1471-4159.1989.tb07357.x (Albany Medical College, 1989)

How the values were obtained:
[1] = molecular target: 5-hydroxytryptamine receptor 1E (Homo sapiens, UniProt P28566)
[2] = molecular target: 5-hydroxytryptamine 1D receptor (Bos taurus, UniProt Q8MI13)
Sequence of 5-hydroxytryptamine 1D receptor (Q8MI13 whole entry): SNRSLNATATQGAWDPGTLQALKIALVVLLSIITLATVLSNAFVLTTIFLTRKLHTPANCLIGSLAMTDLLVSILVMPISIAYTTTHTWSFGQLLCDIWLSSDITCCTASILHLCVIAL

Sequence of 5-hydroxytryptamine receptor 1E (P28566 whole entry): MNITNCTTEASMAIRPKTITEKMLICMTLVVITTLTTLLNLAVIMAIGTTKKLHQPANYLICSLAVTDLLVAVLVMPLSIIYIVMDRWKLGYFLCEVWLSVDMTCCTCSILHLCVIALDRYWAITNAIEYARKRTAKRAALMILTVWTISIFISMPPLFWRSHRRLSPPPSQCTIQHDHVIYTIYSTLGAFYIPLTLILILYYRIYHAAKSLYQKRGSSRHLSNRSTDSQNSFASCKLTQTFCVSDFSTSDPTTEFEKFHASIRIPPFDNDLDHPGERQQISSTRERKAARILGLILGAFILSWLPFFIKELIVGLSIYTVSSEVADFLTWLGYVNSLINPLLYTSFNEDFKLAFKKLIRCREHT

Compound `CCCN(CCC)C1CCc2cccc(O)c2C1` (stereo not given) has a Ki [1] of 0.826 µM and a Ki [2] of 0.2 µM.
For `FC(F)(F)c1cccc(N2CCNCC2)c1` [TFMPP], the Ki [1] was 0.57 µM and the Ki [2] was 0.15 µM.
`COc1cc(CC(C)N)c(OC)cc1Br` (stereo not drawn) [2-(4-Bromo-2,5-dimethoxy-phenyl)-1-methyl-ethylamine((-)-DOB)] was tested, and the Ki [1] was 0.556 µM and the Ki [2] was 1 µM.
Work on `CN1C2CCC1CC(OC(=O)c1c[nH]c3ccccc13)C2` (stereo not given) yielded a Ki [1] of over 10 µM and a Ki [2] of over 10 µM.
For `NCCc1c[nH]c2ccc(C(N)=O)cc12` [[3H]-5-carboxamidotryptamine], the Ki [1] was 0.91 µM.
Work on `O=C(c1ccc(F)cc1)C1CCN(CCn2c(=O)[nH]c3ccccc3c2=O)CC1` [3-(2-{4-[(4-fluorophenyl)carbonyl]piperidin-1-yl}ethyl)-1,2,3,4-tetrahydroquinazoline-2,4-dione] yielded a Ki [1] of over 10 µM and a Ki [2] of 3.2 µM.
Work on `NCCc1c[nH]c2ccc(O)cc12` [[3H]-5-HT] yielded a Ki [2] of 0.0019 µM.
`CN1C[C@H](C(=O)N[C@]2(C)O[C@@]3(O)[C@@H]4CCCN4C(=O)[C@H](Cc4ccccc4)N3C2=O)C=C2c3cccc4[nH]cc(c34)C[C@H]21` [12'-hydroxy-2'-methyl-5'alpha-(phenylmethyl)ergotaman-3',6',18-trione] showed a Ki [1] of 0.155 µM.
In the case of `CC[C@@H](CO)NC(=O)[C@@H]1C=C2c3cccc4c3c(cn4C)C[C@H]2N(C)C1`, the Ki [1] is reported as 0.059 µM and the Ki [2] is reported as 0.0088 µM.
